# Measurements taken from patent US11912693B2, “Compounds for modulating S1P1 activity and methods of using the same” (TREVENA, INC., priority 2017, dated 2024).
# Key:
# [1] = target: T1, human sphingosine-1-phosphate receptor 1 (S1P1) (Homo sapiens (Human), UniProt P21453); assay: Inhibition of cAMP production (HTRF cAMP HiRange), S1P1 CHO-K1 cells; format: cell-based; conditions: for Emax: CHO-K1, efficacy (SPAN) normalized to fingolimod, read-out: hS1P1 cAMP SPAN; for hS1P1 cAMP pEC50: inhibition of cAMP production, S1P1 CHO-K1 cells
# Summary of the method: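 CHO-K1 cells stably co-expressing human S1P1 (C-terminal Prolink tag) and EA-β-arrestin2 were grown in AssayComplete Media 6 at 37° C. and 5% CO2, plated, and incubated overnight. Agonist-driven inhibition of intracellular cAMP was read by TR-FRET with the HTRF cAMP HiRange kit on a PheraStar reader. Potency is pEC50, and efficacy (SPAN) is normalized to fingolimod.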
# Target sequence in this assay (P21453 whole entry, looked up): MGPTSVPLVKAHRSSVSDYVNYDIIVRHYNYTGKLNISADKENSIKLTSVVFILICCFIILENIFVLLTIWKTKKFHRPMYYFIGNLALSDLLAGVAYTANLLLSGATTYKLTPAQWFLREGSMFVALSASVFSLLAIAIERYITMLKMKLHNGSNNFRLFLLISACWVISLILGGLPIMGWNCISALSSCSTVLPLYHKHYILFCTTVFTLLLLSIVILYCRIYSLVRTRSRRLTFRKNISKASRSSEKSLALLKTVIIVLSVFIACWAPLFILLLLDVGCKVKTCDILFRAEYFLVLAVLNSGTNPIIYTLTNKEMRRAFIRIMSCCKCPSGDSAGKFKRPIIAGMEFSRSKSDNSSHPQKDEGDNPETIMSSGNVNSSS
# [2] = tested on: paclitaxel induced peripheral neuropathy; assay: Reversal of allodynia induced by paclitaxel in mice (s.c. or p.o., von Frey frequency method); format: in vivo, c57bl/6 mice; conditions: Mus musculus, po, 1 h, 3 mg/kg p.o., tested 60 min after dosing, read-out: Screen @ 3 mg/kg po (% MPE)
# Protocol: Compounds were tested for efficacy in mouse models of chemotherapy induced peripheral neuropathy. […] For these studies […]/6 mice are habituated to the test environment and baseline measurements of pain sensitivity are assessed. To determine mechanical responses, the threshold for responses to punctate mechanical stimuli (mechanical hyperalgesia) was tested according to the frequency method. In brief, the plantar surface of the animal hindpaw was stimulated with a single von Frey monofilament (0.4 g) for approximately 1-2 seconds. If there was a withdrawal response, it was recorded as a positive response. A response was defined as a lifting or shaking of the paw upon stimulation. This was repeated ten times for each mouse. The final measurement for each mouse is the % non-response to stimulation for the ten trials. The % non-response to stimulation is converted to a % MPE. For paclitaxel induced peripheral neuropathy, a series of injections of PAC (6 mg/kg, i.p.) on days 1, 3, 5 and 7 is used to induce peripheral neuropathy. After approximately 14 days from the initiation of PAC injections, animals are re-assessed for mechanical sensitivity. […] On test day animals are dosed with compounds either subcutaneously or orally and tested for mechanical response by the frequency method either 30 min (s.c.) or 60 min (p.o.) after drug administration. Data is presented as a % MPE. For oxaliplatin induced peripheral neuropathy, a series of injections of OXA (4 mg/kg, i.p.) on days 1-5 is used to induce peripheral neuropathy. After approximately 14 days from the initiation of PAC injections, animals are re-assessed for mechanical sensitivity. […] On test day animals are dosed with compounds subcutaneously and tested for mechanical response by the frequency method 30 min after drug administration. Data is presented as a % MPE. One or more of the compounds show reversal of chemotherapeutic induced peripheral neuropathy.
# [3] = target: T1, human sphingosine-1-phosphate receptor 1 (S1P1); assay: β-Arrestin2 recruitment assay (PathHunter), S1P1 CHO-K1 cells; format: cell-based; conditions: for Emax: CHO-K1, efficacy (SPAN) normalized to fingolimod, read-out: hS1P1 B-arrestin2 SPAN; for hS1P1 B-arrestin2 pEC50: β-arrestin2 recruitment, S1P1 CHO-K1 cells
# Summary of the method: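 Enzyme-fragment complementation read-out: agonist-driven β-arrestin2 binding to ProLink-tagged human S1P1 in stable CHO-K1 cells restores β-galactosidase, measured 1 h at room temperature after a 60 min 37° C. compound incubation. Potency as pEC50, efficacy relative to fingolimod (SPAN).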
# Target sequence in this assay (P21453 whole entry, looked up): as above
# Target sequence in this assay (P32121 whole entry partner, looked up): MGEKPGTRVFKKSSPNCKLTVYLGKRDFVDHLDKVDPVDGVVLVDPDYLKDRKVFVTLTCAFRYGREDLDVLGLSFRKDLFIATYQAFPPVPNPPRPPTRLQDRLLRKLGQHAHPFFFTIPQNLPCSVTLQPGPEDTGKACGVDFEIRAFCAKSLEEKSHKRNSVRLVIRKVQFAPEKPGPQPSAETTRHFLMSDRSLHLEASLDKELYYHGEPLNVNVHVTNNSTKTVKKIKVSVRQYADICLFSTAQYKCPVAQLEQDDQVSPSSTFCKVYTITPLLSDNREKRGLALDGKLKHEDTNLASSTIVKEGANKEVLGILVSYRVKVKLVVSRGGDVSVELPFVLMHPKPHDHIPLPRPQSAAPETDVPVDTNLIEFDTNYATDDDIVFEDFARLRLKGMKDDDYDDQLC
Emax [1] [%],hS1P1 cAMP pEC50 [1],Emax [3] [%],hS1P1 B-arrestin2 pEC50 [3],SMILES,inhibition in vivo at 3 mg/kg [2] [%]
,>6.5,,<5,"CCC1(CC)CC(=O)c2cc(-c3nc(-c4ccc5c(c4)CCC(=O)N5)no3)ccc2O1 [Compound 415, 6-(5-(2,2-diethyl-4-oxochroman-6-yl)-1,2,4-oxadiazol-3-yl)-3,4-dihydroquinolin-2(1H)-one]",< 50
,>6.5,,>5,"CCC1(CC)CC(=O)c2cc(-c3nc(-c4cncc(N)c4)no3)ccc2O1 [Compound 502, 6-(3-(5-aminopyridin-3-yl)-1,2,4-oxadiazol-5-yl)-2,2-diethylchroman-4-one]",> 50
,>6.5,,>5,"CCC1(CC)CC(=O)c2cc(-c3nc(-c4ccnc(N)c4)no3)ccc2O1 [Compound 513, 6-(3-(2-aminopyridin-4-yl)-1,2,4-oxadiazol-5-yl)-2,2-diethylchroman-4-one]",< 50
,>6.5,,>5,"CC(C)Nc1ccc(-c2nc(-c3ccc4c(c3)C(=O)NCC4)no2)cc1C#N [Compound 514, 2-(isopropylamino)-5-(3-(1-oxo-1,2,3,4-tetrahydroisoquinolin-7-yl)-1,2,4-oxadiazol-5-yl)benzonitrile]",> 50

# Further lines, the compound ahead of its results:
SMILES,Emax [1] [%],hS1P1 cAMP pEC50 [1],Emax [3] [%],hS1P1 B-arrestin2 pEC50 [3],inhibition in vivo at 3 mg/kg [2] [%]
"N#Cc1cc(-c2nnc(-c3ccc4[nH]ncc4c3)o2)ccc1NCC(F)F [Compound 354, 2-[(2,2-difluoroethyl)amino]-5-[5-(1H-indazol-5-yl)-1,3,4-oxadiazol-2-yl]benzonitrile]",> 75,>6.5,> 75,>5,> 50
"N#Cc1cc(-c2nnc(-c3ccc4[nH]cnc4c3)o2)ccc1NCCF [Compound 358, 5-[5-(1H-1,3-benzodiazol-5-yl)-1,3,4-oxadiazol-2-yl]-2-[(2-fluoroethyl)amino]benzonitrile]",> 75,>6.5,> 75,>5,> 50
"N#Cc1cc(-c2nnc(-c3ccc4[nH]cnc4c3)o2)ccc1NCC(F)F [Compound 359, 5-[5-(1H-1,3-benzodiazol-5-yl)-1,3,4-oxadiazol-2-yl]-2-[(2,2-difluoroethyl)amino]benzonitrile]",> 75,>6.5,> 75,>5,> 50
"CC(C)Nc1ccc(-c2nc(-c3ccc4c(c3)NC(=O)CC4)no2)cc1C#N [Compound 435, 2-(isopropylamino)-5-(3-(2-oxo-1,2,3,4-tetrahydroquinolin-7-yl)-1,2,4-oxadiazol-5-yl)benzonitrile]",,>6.5,,>5,> 50
"CC(C)Nc1ccc(-c2nc(-c3ccc4c(c3)CCNC4=O)no2)cc1C#N [Compound 442, 2-(isopropylamino)-5-(3-(1-oxo-1,2,3,4-tetrahydroisoquinolin-6-yl)-1,2,4-oxadiazol-5-yl)benzonitrile]",,>6.5,,>5,> 50
"N#Cc1cc(-c2nc(-c3ccc4c(c3)NC(=O)CC4)no2)ccc1NCC1CC1 [Compound 471, 2-((cyclopropylmethyl)amino)-5-(3-(2-oxo-1,2,3,4-tetrahydroquinolin-7-yl)-1,2,4-oxadiazol-5-yl)benzonitrile]",,>6.5,,>5,< 50
"N#Cc1cc(-c2nc(-c3ccc4c(c3)CCC(=O)N4)no2)ccc1NCC(F)(F)F [Compound 472, 5-[3-(2-oxo-1,2,3,4-tetrahydroquinolin-6-yl)-1,2,4-oxadiazol-5-yl]-2-[(2,2,2-trifluoroethyl)amino]benzonitrile]",,>6.5,,>5,> 50
